Measured values taken from PMC10480161, “Identification of potent and selective N-myristoyltransferase inhibitors of Plasmodium vivax liver stage hypnozoites and schizonts” (Nature Communications, 2023).
Where “and” joins values, the source holds several entries; their conditions need not be identical. Identical values can stand only once.

Columns and labels:
[1] = system: primary human hepatocytes; test: Nuclear counts (DAPI) in P. vivax-infected primary hepatocytes as measure of toxicity; assay type: cell-based; conditions: two technical replicates
Outline: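 Toxicity readout: DAPI nuclear counts normalized to DMSO wells, from confocal images of fixed P. vivax-infected single-donor primary human hepatocytes. Compounds, up to 20 µM, were applied daily from day 5 until day 8 post-infection; two technical replicates.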

[2] = biological target: T1, HsNMT1 (Homo sapiens, UniProt P30419); test: NMT activity assay (CPM detection of free CoA), HsNMT
T1 sequence (P30419 1-496): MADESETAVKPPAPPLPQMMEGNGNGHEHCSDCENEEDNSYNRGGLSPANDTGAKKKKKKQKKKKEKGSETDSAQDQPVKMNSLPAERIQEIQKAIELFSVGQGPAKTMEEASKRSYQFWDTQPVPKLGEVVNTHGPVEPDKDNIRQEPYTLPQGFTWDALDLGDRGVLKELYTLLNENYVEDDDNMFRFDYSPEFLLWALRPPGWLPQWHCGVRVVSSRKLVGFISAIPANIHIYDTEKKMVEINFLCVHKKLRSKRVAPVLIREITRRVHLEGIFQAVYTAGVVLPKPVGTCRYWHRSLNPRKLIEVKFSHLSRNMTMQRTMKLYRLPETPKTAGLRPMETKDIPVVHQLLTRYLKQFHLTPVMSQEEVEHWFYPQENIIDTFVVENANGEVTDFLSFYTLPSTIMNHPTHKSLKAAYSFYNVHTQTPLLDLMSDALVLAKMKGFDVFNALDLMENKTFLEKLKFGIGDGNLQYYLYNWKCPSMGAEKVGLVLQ

[3] = system: HepG2 cells; test: HepG2 cytotoxicity assay (Live/Dead staining); conditions: replicates
Outline: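 Live/dead fluorescence microscopy (calcein-AM and ethidium homodimer, 1 µM each) read at 72 h post-treatment. Compounds dosed at 1 to 20 µM on HepG2 cells, with washing and fresh compound every 24 h.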

[4] = biological target: PvNMT (Plasmodium vivax, UniProt A5K1A2); test: NMT activity assay (CPM detection of free CoA), PvNMT; conditions: for IC50: PvNMT IC50, mean of two or more determinations; for SI: enzyme selectivity, HsNMT IC50/PvNMT IC50
Chain of PvNMT (A5K1A2 entry or part of it): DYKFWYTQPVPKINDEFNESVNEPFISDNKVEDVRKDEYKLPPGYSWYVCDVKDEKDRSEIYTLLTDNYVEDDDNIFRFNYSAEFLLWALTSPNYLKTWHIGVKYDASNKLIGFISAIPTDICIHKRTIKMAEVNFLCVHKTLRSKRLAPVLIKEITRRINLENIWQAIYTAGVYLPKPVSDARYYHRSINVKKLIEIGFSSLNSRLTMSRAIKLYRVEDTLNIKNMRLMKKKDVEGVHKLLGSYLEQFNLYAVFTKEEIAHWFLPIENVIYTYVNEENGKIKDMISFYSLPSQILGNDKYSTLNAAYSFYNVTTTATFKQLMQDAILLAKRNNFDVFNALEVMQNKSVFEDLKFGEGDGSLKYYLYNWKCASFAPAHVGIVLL

[5] = system: P. vivax hypnozoites; test: P. vivax liver stage assay, hypnozoites; assay type: cell-based, Plasmodium vivax; conditions: for Hypnozoites per well: Isolate 2, replicate wells (Figure 6d); for Number of liverstage hypnozoites per well: 20 µM, 8 dpi; for IC50: Plasmodium vivax, Hepatocyte, 120 h, primary human hepatocytes, treatment day 5 to 8 post-infection, isolate 2
Outline: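 Hypnozoite read-out by confocal imaging of PvUIS4/DAPI-stained cultures at day 8 post-infection. Compound was replaced daily starting day 5 in P. vivax-infected single-donor primary human hepatocytes. Positive control: Pi4K inhibitor MMV390048, 20 µM.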

[6] = isolate 1, technical replicates (Fig. 6C)
[7] = isolate 2, technical replicates (Fig. 6C)
[8] = isolate 3, technical replicates (Fig. 6C)

SMILES: Cc1nn(C)c(C)c1CCOc1cc(F)ccc1-c1cccc(OCCN(C)C)c1 [Compound 26c]
- Nucleus counts per well ([1]; 1 uM): 16190 per well and 15050 per well
- Nucleus counts per well ([1]; 2.5uM): 15160 per well and 15950 per well
- Nucleus counts per well ([1]; 5 uM): 16180 per well and 14300 per well
- Nucleus counts per well ([1]; 10uM): 14610 per well and 15250 per well
- Nucleus counts per well ([1]; 20uM, P. vivax-infected wells): 12520 per well and 13160 per well
- IC50 [2]: 4.79 µM
- Percentage of live HepG2 cells compared with diluent controls ([3]; 1 μM): 106.359% and 107.918%
- Percentage of live HepG2 cells compared with diluent controls ([3]; 2.5 μM): 107.866% and 101.058%
- Percentage of live HepG2 cells compared with diluent controls ([3]; 5 μM): 101.681% and 95.3408%
- Percentage of live HepG2 cells compared with diluent controls ([3]; 10 μM): 87.7011% and 97.3677%
- Percentage of live HepG2 cells compared with diluent controls ([3]; 20 μM): 83.4394% and 83.5174%
- IC50 [4]: 0.0294 µM
- SI [4]: 162.3
- Hypnozoites per well ([5]; 1.25 uM): 7 and 11 and 8
- Hypnozoites per well ([5]; 2.5 uM): 6 and 5 and 7
- Hypnozoites per well ([5]; 5 uM): 6 (2×) and 3
- Hypnozoites per well ([5]; 10 uM): 3 and 2 and 7
- Number of liverstage hypnozoites per well [5, 6]: 4 per well and 0 per well (2×)
- Number of liverstage hypnozoites per well [5, 7]: 4 per well and 0 per well (2×)
- Number of liverstage hypnozoites per well [5, 8]: 0 per well (2×) and 1 per well
- Hypnozoites per well ([5]; 20 uM): 4 and 0 (2×)
- IC50 [5]: 4.2 µM
- hypnozoites (fold change to DMSO) mean diff ([5]; isolate 1, 20 µM): 0.923
- hypnozoites (fold change to DMSO) mean diff ([5]; isolate 2, 20 µM): 0.862

SMILES: Cc1nn(C)c(C)c1CCOc1ccccc1-c1cccc(N2CCNCC2)c1 [Compound 12d]
- Nucleus counts per well ([1]; 1 uM): 15900 per well and 16970 per well
- Nucleus counts per well ([1]; 2.5uM): 14920 per well and 16520 per well
- Nucleus counts per well ([1]; 5 uM): 15990 per well and 14720 per well
- Nucleus counts per well ([1]; 10uM): 15680 per well and 15000 per well
- Nucleus counts per well ([1]; 20uM, P. vivax-infected wells): 12690 per well and 13950 per well
- IC50 [2]: 7.44 µM
- Percentage of live HepG2 cells compared with diluent controls ([3]; 1 μM): 110.153% and 106.021%
- Percentage of live HepG2 cells compared with diluent controls ([3]; 2.5 μM): 105.943% and 99.4465%
- Percentage of live HepG2 cells compared with diluent controls ([3]; 5 μM): 100.018% and 98.1213%
- Percentage of live HepG2 cells compared with diluent controls ([3]; 10 μM): 93.0281% and 104.514%
- Percentage of live HepG2 cells compared with diluent controls ([3]; 20 μM): 84.6088% and 84.0111%
- IC50 [4]: 0.0485 µM
- SI [4]: 153.4
- Hypnozoites per well ([5]; 1.25 uM): 11 and 8 and 9
- Hypnozoites per well ([5]; 2.5 uM): 7 (2×) and 8
- Hypnozoites per well ([5]; 5 uM): 5 (2×) and 7
- Hypnozoites per well ([5]; 10 uM): 3 (2×) and 2
- Number of liverstage hypnozoites per well [5, 6]: 1 per well (2×) and 0 per well
- Number of liverstage hypnozoites per well [5, 7]: 3 per well and 0 per well and 1 per well
- Number of liverstage hypnozoites per well [5, 8]: 0 per well
- Hypnozoites per well ([5]; 20 uM): 3 and 0 and 1
- IC50 [5]: 4.7 µM
- hypnozoites (fold change to DMSO) mean diff ([5]; isolate 1, 20 µM): 0.939
- hypnozoites (fold change to DMSO) mean diff ([5]; isolate 2, 20 µM): 0.862
